Data taken from patent US20100016285A1, “HETEROCYCLIDENE-N-(ARYL) ACETAMIDE DERIVATIVE” (MOCHIDA PHARMACEUTICAL CO., LTD., priority 2007, published 2010).

Target: T1, human TRPV1 (Homo sapiens, UniProt Q8NER1)
T1 construct: expressed in transfected cells; host or cells: CHO-K1 cells, pCAGGS vector, clones selected by limiting dilution
Experiment: Capsaicin-induced Ca influx in transformed CHO cells, FDSS-6000 (b-1), A2 value
Format: cell-based
Details: concentration shifting the capsaicin concentration-reaction curve two times rightward; CHO cells expressing TRPV1
Text: (1) Measurement of Capsaicin-Induced Ca Influx in a Transformed CHO Cell Line Expressing Human TRPV1
(a) Establishment of a Transformed CHO Cell Line Expressing Human and Rat TRPV1
Human and rat vanilloid receptor 1 (hTRPV1 and rTRPV1) cDNA was cloned from human brain and rat dorsal root ganglion, respectively. The cloned TRPV1 cDNA was incorporated in a pCAGGS vector. The vector was introduced to a CHO-K1 cell line, thus performing transformation. Clones obtained by limiting dilution were stimulated with capsaicin. Clones with a high responsiveness were selected using an increase in the Ca concentration as an indicator. The selected clones were used for the following experiment.
(b-1) Measurement of Ca Influx using FDSS-6000
The transformed CHO cells expressing human or rat TRPV1 were seeded in a 96-well plate (with black walls and transparent bottoms, manufactured by Greiner) at a density of 40,000 cells per well. The cells were cultured at 37° C. in 5% CO2 atmosphere for one night. A loading solution of FLIPR Calcium 3 assay kit (manufactured by Molecular Devices Corporation) containing 2.5 mmol/L of probenecid was then added to each of the wells in the same amount as the culture medium, and the cells were cultured at 37° C. for 60 minutes. For three minutes after the cells were stimulated with capsaicin (1 nmol/L to 1 μmol/L), the change of the intracellular Ca concentration was measured using FDSS-6000 (λex: 480 nm, λem: […], manufactured by Hamamatsu Photonics K.K.). The integrated values of the increase rate of the intracellular Ca concentration were calculated for a group treated with the compounds of the present invention and a group treated with a vehicle, thus allowing capsaicin concentration-reaction curves to be obtained. A concentration (A2 value) of each of the compounds of the present invention, at which the capsaicin concentration-reaction curve obtained when the cells were treated with the vehicle was shifted two times rightward, was calculated. The inhibitory effects of the test compounds were compared using this value as an indicator.

T1 sequence (Q8NER1 whole entry): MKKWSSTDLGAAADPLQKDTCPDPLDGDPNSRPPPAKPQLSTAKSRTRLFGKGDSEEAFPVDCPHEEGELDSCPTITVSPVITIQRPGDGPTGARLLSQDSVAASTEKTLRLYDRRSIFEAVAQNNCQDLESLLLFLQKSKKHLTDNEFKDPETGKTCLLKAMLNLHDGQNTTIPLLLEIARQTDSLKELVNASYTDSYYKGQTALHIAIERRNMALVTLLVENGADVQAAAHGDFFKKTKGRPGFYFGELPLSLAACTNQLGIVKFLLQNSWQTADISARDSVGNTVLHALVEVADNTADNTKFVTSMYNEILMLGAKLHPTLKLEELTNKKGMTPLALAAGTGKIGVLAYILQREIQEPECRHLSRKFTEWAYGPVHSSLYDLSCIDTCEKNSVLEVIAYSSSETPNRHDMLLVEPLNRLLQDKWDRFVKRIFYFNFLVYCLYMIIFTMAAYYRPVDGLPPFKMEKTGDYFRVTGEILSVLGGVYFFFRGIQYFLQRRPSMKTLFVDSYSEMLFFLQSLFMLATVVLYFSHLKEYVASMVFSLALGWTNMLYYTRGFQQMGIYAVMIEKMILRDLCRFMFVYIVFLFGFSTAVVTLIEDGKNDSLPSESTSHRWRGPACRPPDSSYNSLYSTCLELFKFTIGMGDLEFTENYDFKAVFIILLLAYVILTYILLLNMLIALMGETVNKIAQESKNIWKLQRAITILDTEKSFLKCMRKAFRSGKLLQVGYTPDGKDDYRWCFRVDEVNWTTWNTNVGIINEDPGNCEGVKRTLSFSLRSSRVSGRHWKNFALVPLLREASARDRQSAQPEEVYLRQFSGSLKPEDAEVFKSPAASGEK

SMILES	A2 value
O=C(/C=C1\CCCOc2cc(C(F)(F)F)ccc21)Nc1ccc2c(c1)NS(=O)(=O)NC2 [EXAMPLE 17, (E)-2-(8-trifluoromethyl-3,4-dihydrobenzo[b]oxepin-5(2H)-ylidene)-N-(3,4-dihydro-2,2-dioxo-1-H-2,1,3-benzothiadiazin-7-yl)acetamide]	A (A2 value of less than 100 nM)
O=C(/C=C1\CCCOc2cc(C(F)(F)F)ccc21)Nc1cccc2c1CCC(=O)N2CCO [EXAMPLE 19, (E)-2-(8-trifluoromethyl-3,4-dihydrobenzo[b]oxepin-5(2H)-ylidene)-N-(1-(2-hydroxyethyl)-3,4-dihydro-2(1H)-quinolinon-5-yl)acetamide]	A (A2 value of less than 100 nM)
O=C(/C=C1\CCCOc2cc(C(F)(F)F)ccc21)Nc1cccc2c1OCC(=O)N2 [EXAMPLE 20, (E)-2-(8-trifluoromethyl-3,4-dihydrobenzo[b]oxepin-5(2H)-ylidene)-N-(2H-1,4-benzoxazin-3(4H)-on-8-yl)acetamide]	A (A2 value of less than 100 nM)
O=C(/C=C1\CCCOc2cc(C(F)(F)F)ccc21)Nc1cccc2c1NCC(=O)N2 [EXAMPLE 21, (E)-2-(8-trifluoromethyl-3,4-dihydrobenzo[b]oxepin-5(2H)-ylidene)-N-(3,4-dihydro-2 (1H)-quinoxalinon-5-yl)acetamide]	A (A2 value of less than 100 nM)
CN1CC(=O)Nc2cccc(NC(=O)/C=C3\CCCOc4cc(C(F)(F)F)ccc43)c21 [EXAMPLE 22, (E)-2-(8-trifluoromethyl-3,4-dihydrobenzo[b]oxepin-5(2H)-ylidene)-N-(3,4-dihydro-4-methyl-2 (1H)-quinoxalinon-5-yl)acetamide]	A (A2 value of less than 100 nM)
CC1(C)C/C(=C\C(=O)Nc2ccc3c(c2)NC(=O)CC3)c2ccc(C(F)(F)F)cc2O1 [EXAMPLE 24, (E)-2-(7-trifluoromethyl-2,2-dimethylchroman-4-ylidene)-N-(3,4-dihydroquinolin-2(1H)-on-7-yl)acetamide]	A (A2 value of less than 100 nM)
CN1C(=O)CCc2ccc(NC(=O)/C=C3\CC(C)(C)Oc4cc(C(F)(F)F)ccc43)cc21 [EXAMPLE 25, (E)-2-(7-trifluoromethyl-2,2-dimethylchroman-4-ylidene)-N-(1-methyl-3,4-dihydro-2(1H)-quinolinon-7-yl)acetamide]	A (A2 value of less than 100 nM)
O=C(/C=C1\NCCOc2cc(C(F)(F)F)ccc21)Nc1ccc2c(c1)NC(=O)CC2 [EXAMPLE 27, (Z)-2-(8-trifluoromethyl-3,4-dihydrobenzo[f][1,4]oxazepin-5(2H)-ylidene)-N-(3,4-dihydroquinolin-2(1H)-on-7-yl)acetamide]	A (A2 value of less than 100 nM)
O=C1CNc2cccc(NC(=O)/C=C3\CCCOc4cc(C(F)(F)F)ccc43)c2C1 [EXAMPLE 36, (E)-2-(8-trifluoromethyl-3,4-dihydrobenzo[b]oxepin-5(2H)-yliden)-N-(3-oxo-1,2,3,4-tetrahydroquinolin-5-yl)acetamide]	A (A2 value of less than 100 nM)
O=C(/C=C1\CCCOc2cc(C(F)(F)F)ccc21)Nc1ccc(OCCCO)c2c1CCC(=O)N2 [EXAMPLE 37, (E)-2-(8-trifluoromethyl-3,4-dihydrobenzo[b]oxepin-5(2H)-ylidene)-N-(8-(3-hydroxypropoxy)-3,4-dihydro-2(1H)-quinolinon-5-yl)acetamide]	A (A2 value of less than 100 nM)
O=C(/C=C1\CCCOc2cc(C(F)(F)F)ccc21)Nc1ccc2c(c1)NC(=O)N(Cc1ccccc1)C2 [EXAMPLE 38, (E)-2-(8-trifluoromethyl-3,4-dihydrobenzo[b]oxepin-5(2H)-ylidene)-N-(3-benzyl-3,4-dihydro-2(1H)-quinazolinon-7-yl)acetamide]	A (A2 value of less than 100 nM)
CN1C(=O)N(Cc2ccccc2)Cc2ccc(NC(=O)/C=C3\CCCOc4cc(C(F)(F)F)ccc43)cc21 [EXAMPLE 39, (E)-2-(8-trifluoromethyl-3,4-dihydrobenzo[b]oxepin-5(2H)-ylidene)-N-(3-benzyl-1-methyl-3,4-dihydro-2(1H)-quinazolinon-7-yl)acetamide]	A (A2 value of less than 100 nM)

Other lines, results leading:

A2 value	SMILES
A (A2 value of less than 100 nM)	CN1CC(=O)Nc2cc(NC(=O)/C=C3\CCCOc4cc(C(F)(F)F)ccc43)ccc21 [EXAMPLE 8, (E)-2-(8-trifluoromethyl-3,4-dihydrobenzo[b]oxepin-5 (2H)-ylidene)-N-(4-methyl-3,4-dihydro-2(1H)-quinoxalinon-7-yl)acetamide]
A (A2 value of less than 100 nM)	O=C(/C=C1\CCCOc2cc(C(F)(F)F)ccc21)Nc1ccc2c(c1)NC(=O)C(CO)N2 (centres unmarked) [EXAMPLE 9, (E)-2-(8-trifluoromethyl-3,4-dihydrobenzo[b]oxepin-5(2H)-ylidene)-N-(3-hydroxymethyl-3,4-dihydro-2(1H)-quinoxalinon-7-yl)acetamide]
A (A2 value of less than 100 nM)	CN1c2ccc(NC(=O)/C=C3\CCCOc4cc(C(F)(F)F)ccc43)cc2NC(=O)C1(C)C [EXAMPLE 11, (E)-2-(8-trifluoromethyl-3,4-dihydrobenzo[b]oxepin-5(2H)-ylidene)-N-(3,3-dimethyl-4-methyl-3,4-dihydro-2(1H)-quinoxalinon-7-yl)acetamide]
A (A2 value of less than 100 nM)	O=C(/C=C1\CCCOc2cc(C(F)(F)F)ccc21)Nc1ccc2c(c1)NC(=O)OC2 [EXAMPLE 12, (E)-2-(8-trifluoromethyl-3,4-dihydrobenzo[b]oxepin-5(2H)-ylidene)-N-(1,4-dihydro-2H-3,1-benzoxadin-2-on-7-yl)acetamide]
A (A2 value of less than 100 nM)	COCCN1Cc2ccc(NC(=O)/C=C3\CCCOc4cc(C(F)(F)F)ccc43)cc2NC1=O [EXAMPLE 16, (E)-2-(8-trifluoromethyl-3,4-dihydrobenzo[b]oxepin-5(2H)-ylidene)-N-(3-(2-methoxyethyl)-3,4-dihydro-2(1H)-quinazolinon-7-yl)acetamide]
A (A2 value of less than 100 nM)	O=C(/C=C1\CCCOc2cc(C(F)(F)F)ccc21)Nc1ccc2c(c1)NC(=O)C(CO)C2 (centres unmarked) [EXAMPLE 28, (E)-2-(8-trifluoromethyl-3,4-dihydrobenzo[b]oxepin-5(2H)-ylidene)-N-(3-hydroxymethyl-3,4-dihydro-2(1H)-quinolinon-7-yl)acetamide]
A (A2 value of less than 100 nM)	CC1(C)Cc2ccc(NC(=O)/C=C3\CCCOc4cc(C(F)(F)F)ccc43)cc2NC1=O [EXAMPLE 29, (E)-2-(8-trifluoromethyl-3,4-dihydrobenzo[b]oxepin-5(2H)-ylidene)-N-(3,3-dimethyl-3,4-dihydro-2(1H)-quinolinon-7-yl)acetamide]
A (A2 value of less than 100 nM)	O=C(/C=C1\CCCOc2cc(C(F)(F)F)ccc21)Nc1ccc2c(c1)NC(=O)C(N1CCOCC1)C2 (centres unmarked) [EXAMPLE 34, (E)-2-(8-trifluoromethyl-3,4-dihydrobenzo[b]oxepin-5(2H)-ylidene)-N-(3-(4-morpholinyl)-3,4-dihydro-2(1H)-quinolinon-7-yl)acetamide]
A (A2 value of less than 100 nM)	CC1(CO)Nc2ccc(NC(=O)/C=C3\CCCOc4cc(C(F)(F)F)ccc43)cc2NC1=O (centres unmarked) [EXAMPLE 40, (E)-2-(8-trifluoromethyl-3,4-dihydrobenzo[b]oxepin-5(2H)-ylidene)-N-(3-hydroxymethyl-3-methyl-3,4-dihydro-2(1H)-quinoxalinon-7-yl)acetamide]
A (A2 value of less than 100 nM)	CN1c2ccc(NC(=O)/C=C3\CCCOc4cc(C(F)(F)F)ccc43)cc2NC(=O)C1(C)CO (centres unmarked) [EXAMPLE 41, (E)-2-(8-trifluoromethyl-3,4-dihydrobenzo[b]oxepin-5(2H)-ylidene)-N-(3-hydroxymethyl-3,4-dimethyl-3,4-dihydro-2(1H)-quinoxalinon-7-yl)acetamide]
A (A2 value of less than 100 nM)	COCCN(CCOC)C1Cc2ccc(NC(=O)/C=C3\CCCOc4cc(C(F)(F)F)ccc43)cc2NC1=O (centres unmarked) [EXAMPLE 44]
A (A2 value of less than 100 nM)	COCCN(C)C1Cc2ccc(NC(=O)/C=C3\CCCOc4cc(C(F)(F)F)ccc43)cc2NC1=O (centres unmarked) [EXAMPLE 45, (E)-2-(8-trifluoromethyl-3,4-dihydrobenzo[b]oxepin-5-(2H)-ylidene)-N-(3-(N-methyl-N-(2-methoxyethyl)amino)-3,4-dihydro-2(1H)-quinolinon-7-yl)acetamide]
A (A2 value of less than 100 nM)	O=C(/C=C1\CCCOc2cc(C(F)(F)F)ccc21)Nc1ccc2c(c1)NC(=O)C(N1CCCC1)C2 (centres unmarked) [EXAMPLE 46]
A (A2 value of less than 100 nM)	O=C(/C=C1\CCCOc2cc(C(F)(F)F)ccc21)Nc1ccc2c(c1)NC(=O)C(N1CC[C@@H](F)C1)C2 (stereo partly drawn) [EXAMPLE 47, (E)-2-(8-trifluoromethyl-3,4-dihydrobenzo[b]oxepin-5(2H)-ylidene)-N-(3-((3S)-fluoropyrrolidin-1-yl)-3,4-dihydro-2(1H)-quinolinon-7-yl)acetamide]
